Data published in ChEMBL document CHEMBL4417630, “Small-molecule inhibitors of Rac1 in metastatic breast cancer” (2014).
Calls of active or inactive are those of the source. No cut-off for these calls is given here.

Legend:
[1] = target: Ras-related C3 botulinum toxin substrate 3 (Homo sapiens) (UniProt P60763); assay: Inhibition of Rac3 in human MDA-MB-435 cells assessed as remaining enzyme activity at 1 uM by Western blotting based pulldown assay (reference value: 100%); format: cell-based
[2] = target: Ras-related C3 botulinum toxin substrate 1 (Homo sapiens) (UniProt P63000); assay: Potency index, ratio of IC50 for NSC-23766 to IC50 for test compound for inhibition of Rac1 in human MDA-MB-435 cells incubated for 24 hrs by G-LISA Rac1 activation assay; format: cell-based
[3] = target: Cell division control protein 42 homolog (Homo sapiens) (UniProt P60953); assay: Inhibition of Cdc42 in human MDA-MB-435 cells assessed as remaining enzyme activity at 2 uM by Western blotting based pulldown assay (reference value: 100%); format: cell-based
[4] = target: Cell division control protein 42 homolog (Homo sapiens) (UniProt P60953); assay: Inhibition of Cdc42 in human MDA-MB-435 cells assessed as remaining enzyme activity at 4 uM by Western blotting based pulldown assay (reference value: 100%); format: cell-based
[5] = target: Cell division control protein 42 homolog (Homo sapiens) (UniProt P60953); assay: Inhibition of Cdc42 in human MDA-MB-435 cells assessed as remaining enzyme activity at 5 uM by Western blotting based pulldown assay (reference value: 100%); format: cell-based
[6] = target: Cell division control protein 42 homolog (Homo sapiens) (UniProt P60953); assay: Inhibition of Cdc42 in human MDA-MB-435 cells assessed as remaining enzyme activity at 10 uM by Western blotting based pulldown assay (reference value: 100%); format: cell-based
[7] = target: Transforming protein RhoA (Homo sapiens) (UniProt P61586); assay: Activation of RhoA in human MDA-MB-435 cells assessed as remaining enzyme activity at 2 uM by Western blotting based pulldown assay (reference value: 100%); format: cell-based
[8] = target: Transforming protein RhoA (Homo sapiens) (UniProt P61586); assay: Activation of RhoA in human MDA-MB-435 cells assessed as remaining enzyme activity at 4 uM by Western blotting based pulldown assay (reference value: 100%); format: cell-based
[9] = target: Transforming protein RhoA (Homo sapiens) (UniProt P61586); assay: Activation of RhoA in human MDA-MB-435 cells assessed as remaining enzyme activity at 5 uM by Western blotting based pulldown assay (reference value: 100%); format: cell-based
[10] = target: Transforming protein RhoA (Homo sapiens) (UniProt P61586); assay: Activation of RhoA in human MDA-MB-435 cells assessed as remaining enzyme activity at 10 uM by Western blotting based pulldown assay (reference value: 100%); format: cell-based
[11] = test system: Ras-related C3 botulinum toxin substrate 1 (Homo sapiens), P63000 [G15A]; assay: Inhibition of glutathione agarose conjugated Rac1 G15A mutant (unknown origin) in assessed as reduction in purified Tiam-1 DH/PH domain association with Rac1 G15A mutant at 40 uM by Western blotting based pulldown assay relative to control
[12] = target: Ras-related C3 botulinum toxin substrate 1 (Homo sapiens) (UniProt P63000); assay: Inhibition of Rac1 in human MDA-MB-231 cells assessed as remaining enzyme activity at 2 uM by Western blotting based pulldown assay (reference value: 100%); format: cell-based
[13] = target: Ras-related C3 botulinum toxin substrate 1 (Homo sapiens) (UniProt P63000); assay: Inhibition of Rac1 in human MDA-MB-231 cells assessed as remaining enzyme activity at 4 uM by Western blotting based pulldown assay (reference value: 100%); format: cell-based
[14] = target: Ras-related C3 botulinum toxin substrate 1 (Homo sapiens) (UniProt P63000); assay: Inhibition of Rac1 in human MDA-MB-435 cells assessed as remaining enzyme activity at 2 uM by Western blotting based pulldown assay (reference value: 100%); format: cell-based
[15] = target: Ras-related C3 botulinum toxin substrate 1 (Homo sapiens) (UniProt P63000); assay: Inhibition of Rac1 in human MDA-MB-435 cells assessed as remaining enzyme activity at 4 uM by Western blotting based pulldown assay (reference value: 100%); format: cell-based
[16] = target: Cell division control protein 42 homolog (Homo sapiens) (UniProt P60953); assay: Inhibition of Cdc42 in human MDA-MB-435 cells assessed as inhibition of lamellipodia formation at 2 to 4 uM incubated for 24 hrs rhodamine phalloidin staining based fluorescence microscopy; format: cell-based
[17] = target: Cell division control protein 42 homolog (Homo sapiens) (UniProt P60953); assay: Inhibition of Cdc42 in human MDA-MB-231 cells assessed as inhibition of lamellipodia formation at 2 to 4 uM incubated for 24 hrs rhodamine phalloidin staining based fluorescence microscopy; format: cell-based
[18] = target: Ras-related C3 botulinum toxin substrate 1 (Homo sapiens) (UniProt P63000); assay: Inhibition of Rac1 in human MDA-MB-435 cells assessed as reduction in PAK1 […] phosphorylation at 2 to 4 uM by Western blot analysis; format: cell-based
[19] = test system: MDA-MB-231; assay: Cytotoxicity against human MDA-MB-231 cells assessed as reduction in cell viability at 1 to 2 uM incubated for 24 hrs by MTT assay; format: functional, cell-based
[20] = test system: MDA-MB-435; assay: Cytotoxicity against human MDA-MB-435 cells assessed as reduction in cell viability at 1 to 2 uM incubated for 24 hrs by MTT assay; format: functional, cell-based
[21] = test system: MCF-10A; assay: Cytotoxicity against human MCF10A cells assessed as reduction in cell viability at 1 to 2 uM incubated for 24 hrs by MTT assay; format: cell-based
[22] = test system: MDA-MB-435; assay: Cytotoxicity against human MDA-MB-435 cells assessed as reduction in cell viability at 25 uM incubated for 24 hrs by MTT assay; format: functional, cell-based
[23] = test system: MDA-MB-231; assay: Cytotoxicity against human MDA-MB-231 cells assessed as reduction in cell viability at 25 uM incubated for 24 hrs by MTT assay; format: functional, cell-based
[24] = test system: MCF-10A; assay: Cytotoxicity against human MCF10A cells assessed as reduction in cell viability at 25 uM incubated for 24 hrs by MTT assay; format: cell-based
[25] = test system: Ras-related C3 botulinum toxin substrate 1 (Homo sapiens), P63000 [G15A]; assay: Inhibition of glutathione agarose conjugated Rac1 G15A mutant (unknown origin) in assessed as reduction in purified Tiam-1 DH/PH domain association with Rac1 G15A mutant at […] by Western blotting based pulldown assay relative to control
[26] = Toxicity in athymic nude mouse assessed as effect on body weight at 1 mg/kg, ip dosed once week for 9 weeks; format: organism-based; conditions: in vivo, 1512 h
[27] = Toxicity in athymic nude mouse assessed as effect on body weight at 1 mg/kg, po dosed once week for 9 weeks; format: organism-based; conditions: in vivo, 1512 h
[28] = Toxicity in athymic nude mouse assessed as effect on gross indications of toxicity at 1 mg/kg, ip dosed once week for 9 weeks; format: organism-based; conditions: in vivo, 1512 h
[29] = Toxicity in athymic nude mouse assessed as effect on gross indications of toxicity at 1 mg/kg, po dosed once week for 9 weeks; format: organism-based; conditions: in vivo, 1512 h
[30] = test system: Ras-related C3 botulinum toxin substrate 1 (Homo sapiens), P63000 [G15A]; assay: Inhibition of glutathione agarose conjugated Rac1 G15A mutant (unknown origin) in assessed as reduction in purified Tiam-1 DH/PH domain association with Rac1 G15A mutant by measuring average Tiam-1 level in pulldown at 4 uM by Western blotting based pulldown assay (reference value: 100%); set-up: scale not given: the % may be the effect or the level left
[31] = test system: Ras-related C3 botulinum toxin substrate 1 (Homo sapiens), P63000 [G15A]; assay: Inhibition of glutathione agarose conjugated Rac1 G15A mutant (unknown origin) in assessed as reduction in purified Tiam-1 DH/PH domain association with Rac1 G15A mutant by measuring average Tiam-1 level in pulldown at 8 uM by Western blotting based pulldown assay (reference value: 100%); set-up: scale not given: the % may be the effect or the level left
[32] = test system: Ras-related C3 botulinum toxin substrate 1 (Homo sapiens), P63000 [G15A]; assay: Inhibition of glutathione agarose conjugated Rac1 G15A mutant (unknown origin) in assessed as reduction in purified Tiam-1 DH/PH domain association with Rac1 G15A mutant by measuring average Tiam-1 level in pulldown at 25 uM by Western blotting based pulldown assay (reference value: 100%); set-up: scale not given: the % may be the effect or the level left

Chain of Cell division control protein 42 homolog (Homo sapiens) (P60953 whole entry, looked up): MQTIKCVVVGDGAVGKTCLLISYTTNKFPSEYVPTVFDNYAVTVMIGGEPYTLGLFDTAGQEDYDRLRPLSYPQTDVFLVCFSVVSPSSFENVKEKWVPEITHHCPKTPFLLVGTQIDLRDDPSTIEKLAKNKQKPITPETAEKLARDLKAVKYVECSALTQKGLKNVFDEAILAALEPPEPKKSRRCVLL
Chain of Transforming protein RhoA (Homo sapiens) (P61586 whole entry, the tested form may be a part): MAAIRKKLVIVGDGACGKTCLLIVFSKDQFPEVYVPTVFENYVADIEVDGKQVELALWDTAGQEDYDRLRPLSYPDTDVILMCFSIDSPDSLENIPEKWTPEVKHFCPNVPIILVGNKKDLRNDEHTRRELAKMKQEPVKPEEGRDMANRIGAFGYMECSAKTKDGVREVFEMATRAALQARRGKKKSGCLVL

CCn1c2ccccc2c2cc(Nc3ccnc(NCCCN4CCOCC4)n3)ccc21 showed an Activity [1] of 42%, a Ratio IC50 [2] of 100 and an Activity [3] of 104%. It also gave an Activity [4] of 95%, an Activity [5] of 72% and an Activity [6] of 25%. It also gave an Activity [7] of 155%, an Activity [8] of 128% and an Activity [9] of 125%. The Activity [10] was 123%, the inhibition [11] was “Active” and the Activity [12] was 65%. The Activity [13] was 35%, the Activity [14] was 19% and the Activity [15] was 7%. For the same compound, the inhibition [16] was “inactive”, the inhibition [17] was “inactive” and the inhibition [18] was “Active”. For the same compound, the Activity [19] was “inactive”, the Activity [20] was “inactive” and the Activity [21] was “Non-Toxic”. For the same compound, the Activity [22] was “Active”, the Activity [23] was “Active” and the Activity [24] was “Toxic”. For the same compound, the inhibition [25] was “Active”, the Activity [26] was “Non-Toxic” and the Activity [27] was “Non-Toxic”. The Activity [28] was “Non-Toxic”, the Activity [29] was “Non-Toxic” and the Activity [30] was 123%. For the same compound, the Activity [31] was 96% and the Activity [32] was 112%.
